Data reported in patent publication US20220401458A1 (Glia, LLC, priority 2019, published 2022).

Experiments:
[1] = Serum total testosterone levels by competitive ELISA after twice daily topical administration to rat forehead; type: in vivo, male Sprague-Dawley rats; conditions: about 0.2% testosterone gel on shaved forehead twice daily for 14 days; serum 30 min after final application; one-way t-test p 0.08 (FIG. 1)
Protocol: (§1) Hormone Assessment: Blood was collected, stored at 4° C. overnight and spun down to collect serum. Serum was analyzed for total testosterone levels (T) and luteinizing hormone (LH) levels by competitive ELISA using commercially available kits (Enzo Life Sciences). […] All samples were run in duplicate. For assessing LH, serum was diluted 1:2 and, due to high variance, samples were run in quadruplet. Obvious outlying values were omitted and data were averaged for the final analysis.

luteinizing hormone (LH) = test: Serum luteinizing hormone levels by competitive ELISA after topical administration to rat forehead; type: in vivo, male Sprague-Dawley rats; conditions: about 0.2% testosterone gel on forehead twice daily for 14 days; not statistically significant
Protocol: as §1

[2] = tested on: corneal mechanical thresholds; test: Corneal mechanical threshold in rat (surrogate for effect on dry eye); type: in vivo; conditions: p<0.01 (FIG. 5)
Protocol: In the same animal model as used in Example 1, the corneal mechanical thresholds were determined as a surrogate for effect on dry eye.

[3] = Case study Patient: blood testosterone levels during topical testosterone gel to forehead; type: in vivo, human; conditions: for concentration at 2 months / concentration at 10 months: human, blood, topical, 0.14 mg
Protocol: (§2) In February 2019, symptoms continued and progressed. Patient was prescribed carbidopa/levodopa 25 mg/100 mg TID.
Patient was maintained at these levels.

Parkinson's disease = test: Case study Patient: Parkinson's disease symptoms during topical testosterone gel to forehead; type: in vivo, human
Source text: They were diagnosed with Parkinson's in May 2016, confirmed October 2016 and April 2017 by independent DAT scans. Symptoms were bradykinesia of the legs, rigidity/stiffness, postural instability, specifically trouble with balance and falling as well as trouble with moving and walking, with peripheral neuropathy on both feet. Patient experienced no particular tremors. They also experienced chronic and increasing fatigue and loss of energy, as well as chronic head colds that would last about one week at a time every 6 weeks.
as §2

SMILES: C[C@]12CC[C@H]3[C@@H](CCC4=CC(=O)CC[C@@]43C)[C@@H]1CC[C@@H]2O [testosterone, 17β-hydroxyandrost-4-en-3-one]
- increase in testosterone levels in the treated rats compared to controls [1]: 42%
- increase in serum luteinizing hormone levels (luteinizing hormone (LH)): 9%
- corneal mechanical threshold pressure compared with control ([2]; 60 minutes after administration to shaved head): significantly higher
- corneal mechanical threshold pressure compared with control ([2]; 120 minutes after administration to shaved head): significantly higher
- bioavailable testosterone ([3]; 0.2% w/w gel once daily to forehead, 10 months): 2.0 ng/dL
- concentration at 2 months ([3]; Free testosterone, 0.2% w/w gel once daily to forehead): 0.08 pg/mL
- concentration at 10 months ([3]; Free testosterone, 0.2% w/w gel once daily to forehead, 10 months): 1 pg/mL
- concentration at 2 months ([3]; Total testosterone, 0.14 mg in 0.07 g gel (0.2% w/w) once daily to forehead): 140 pg/mL
- concentration at 10 months ([3]; Total testosterone, 0.2% w/w gel once daily to forehead, 10 months): 210 pg/mL
- increase of repetitions in exercises (Parkinson's disease; 20-month period on gel, reported by physical trainer): about 25%
- cognitive decline (Parkinson's disease; April 2020): no cognitive decline
- sex drive compared to before start of testosterone treatment (Parkinson's disease; April 2020): increased sex drive
- strength in knees and rest of body (Parkinson's disease; April 2020): increased strength
- energy / ability to exercise (Parkinson's disease; after starting the testosterone gel 0.14 mg once daily to forehead): more energetic and was able to exercise
- progression of Parkinson's disease (Parkinson's disease; neurologist's conclusion June 2020, comparison with peer group): had not progressed
